Article PMC8179178 (Chemical Science, 2021)
Values after ≈ are worked out from the molar mass of the structure shown. Counter-ions that a name gives are not always drawn.

Legend:
Solubility in PBS = type: physicochemical; conditions: aqueous buffer
rats = conditions: given over 22 days; cited from earlier work
MC38 cells = assay: MTT cell proliferation assay; type: cell-based, murine; conditions: Mus musculus, MC-38, read-out: Cytotoxicity (IC50)

| SMILES | solubility (Solubility in PBS) | Multi-dose MTD of conventional Dox (rats) | IC50 (MC38 cells) |
| --- | --- | --- | --- |
| COc1cccc2c1C(=O)c1c(O)c3c(c(O)c1C2=O)C[C@@](O)(C(=O)CO)C[C@@H]3O[C@H]1C[C@H](N)[C@H](O)[C@H](C)O1 [Dox HCl, doxorubicin] | 3800 µg/mL | 10 mg/kg | 23 nM |
| COc1cc([C@@H]2c3cc4c(cc3[C@@H](O[C@@H]3O[C@@H]5CO[C@@H](C)O[C@H]5[C@H](O)[C@H]3O)[C@H]3COC(=O)[C@H]23)OCO4)cc(OC)c1O [ETP, etoposide] | 2800 µg/mL (≈ 4.76 mM) | – | 160 nM |
| Nc1ccn([C@@H]2O[C@H](CO)[C@@H](O)C2(F)F)c(=O)n1 [GCB HCl, gemcitabine] | – | – | 3 nM |
| CC(=O)O[C@H]1C(=O)[C@@]2(C)[C@H]([C@H](OC(=O)c3ccccc3)[C@]3(O)C[C@H](OC(=O)[C@H](O)[C@@H](NC(=O)c4ccccc4)c4ccccc4)C(C)=C1C3(C)C)[C@]1(OC(C)=O)CO[C@@H]1C[C@@H]2O [PTX, paclitaxel] | – | – | 32 nM |
